This is an account of results in BindingDB's records for doi:10.1016/j.bmc.2009.11.019 (Istituto Di Ricerche Chimiche E Biochimiche G. Ronzoni, 2010).

pIC50: −log10 of the molar value.

A short description of the assay: Inhibition of integrin alphaV receptor-mediated adhesion of human PC3 cells to vitronectin after 1 hr by toluidine blue staining.
Take `NC(N)=NCCC[C@@H]1NC(=O)C(c2ccc(CNC(=O)COCCOCCOCC(=O)O)cc2)NC(=O)[C@@H](Cc2ccccc2)NC(=O)[C@H](CC(=O)O)NC(=O)CNC1=O` (stereo partly drawn) [1-(4-((5S,11S,14R)-14-benzyl-11-(carboxymethyl)-5-(3-guanidinopropyl)-3,6,9,12,15-pentaoxo-1,4,7,10,13-pentaazacyclopentadecan-2-yl)phenyl)-3-oxo-5,8,11-trioxa-2-azatridecan-13-oic acid]: the pIC50 (as a rule, the negative decadic logarithm of the IC50, by convention in mol/L) was 4.73.
To `NNC(=O)COCCOCCOCC(=O)NCc1ccc([C@@H]2NC(=O)[C@@H](Cc3ccccc3)NC(=O)[C@H](CC(=O)O)NC(=O)CNC(=O)[C@H](CCCN=C(N)N)NC2=O)cc1` [2-((2S,5R,8S,11S)-5-benzyl-11-(3-guanidinopropyl)-8-(4-(13-hydrazinyl-3,13-dioxo-5,8,11-trioxa-2-azatridecyl)phenyl)-3,6,9,12,15-pentaoxo-1,4,7,10,13-pentaazacyclopentadecan-2-yl)acetic acid] belongs 4.81; to `CC[C@@]1(O)C(=O)OCc2c1cc1n(c2=O)Cc2c-1nc1ccccc1c2CCC=NNC(=O)COCCOCCOCC(=O)NCc1ccc(C[C@@H]2NC(=O)[C@@H](Cc3ccccc3)NC(=O)[C@H](CC(=O)O)NC(=O)CNC(=O)[C@H](CCCN=C(N)N)NC2=O)cc1` [2-[(2S,5R,8S,11S)-5-benzyl-11-(3-carbamimidamidopropyl)-8-({4-[(2-{2-[2-({N'-[(1E)-3-[(19S)-19-ethyl-19-hydroxy-14,18-dioxo-17-oxa-3,13-diazapentacyclo[11.8.0.0^{2,11}.0^{4,9}.0^{15,20}]henicosa-1(21),2,4,6,8,10,15(20)-heptaen-10-yl]propylidene]hydrazinecarbonyl}methoxy)ethoxy]ethoxy}acetamido)methyl]phenyl}methyl)-3,6,9,12,15-pentaoxo-1,4,7,10,13-pentaazacyclopentadecan-2-yl]acetic acid], 4.96.
To `CC[C@@]1(O)C(=O)OCc2c1cc1n(c2=O)Cc2c-1nc1ccccc1c2C=NNC(=O)COCCOCCOCC(=O)NCc1ccc(C[C@@H]2NC(=O)[C@@H](Cc3ccccc3)NC(=O)[C@H](CC(=O)O)NC(=O)CNC(=O)[C@H](CCCN=C(N)N)NC2=O)cc1` [2-[(2S,5R,8S,11S)-5-benzyl-11-(3-carbamimidamidopropyl)-8-({4-[(2-{2-[2-({N'-[(1E)-[(19S)-19-ethyl-19-hydroxy-14,18-dioxo-17-oxa-3,13-diazapentacyclo[11.8.0.0^{2,11}.0^{4,9}.0^{15,20}]henicosa-1(21),2,4,6,8,10,15(20)-heptaen-10-yl]methylidene]hydrazinecarbonyl}methoxy)ethoxy]ethoxy}acetamido)methyl]phenyl}methyl)-3,6,9,12,15-pentaoxo-1,4,7,10,13-pentaazacyclopentadecan-2-yl]acetic acid] belongs 5.32.
`CC[C@@]1(O)C(=O)OCc2c1cc1n(c2=O)Cc2c-1nc1ccccc1c2/C=N\OCCNC(=O)CCC[C@@H]1NC(=O)[C@@H](Cc2ccccc2)NC(=O)[C@H](CC(=O)O)NC(=O)CNC(=O)[C@H](CCCN=C(N)N)NC1=O` [2-[(2S,5R,8S,11S)-5-benzyl-11-(3-carbamimidamidopropyl)-8-{3-[(2-{[(Z)-{[(19S)-19-ethyl-19-hydroxy-14,18-dioxo-17-oxa-3,13-diazapentacyclo[11.8.0.0^{2,11}.0^{4,9}.0^{15,20}]henicosa-1(21),2,4,6,8,10,15(20)-heptaen-10-yl]methylidene}amino]oxy}ethyl)carbamoyl]propyl}-3,6,9,12,15-pentaoxo-1,4,7,10,13-pentaazacyclopentadecan-2-yl]acetic acid] showed a pIC50 of 5.24.
The molecule `CC[C@@]1(O)C(=O)OCc2c1cc1n(c2=O)Cc2c-1nc1ccccc1c2/C=N/OCCNC(=O)COCCOCCOCC(=O)NCc1ccc(C[C@@H]2NC(=O)[C@@H](Cc3ccccc3)NC(=O)[C@H](CC(=O)O)NC(=O)CNC(=O)[C@H](CCCN=C(N)N)NC2=O)cc1` [2-[(2S,5R,8S,11S)-5-benzyl-11-(3-carbamimidamidopropyl)-8-{[4-({2-[2-(2-{[(2-{[(E)-{[(19S)-19-ethyl-19-hydroxy-14,18-dioxo-17-oxa-3,13-diazapentacyclo[11.8.0.0^{2,11}.0^{4,9}.0^{15,20}]henicosa-1(21),2,4,6,8,10,15(20)-heptaen-10-yl]methylidene}amino]oxy}ethyl)carbamoyl]methoxy}ethoxy)ethoxy]acetamido}methyl)phenyl]methyl}-3,6,9,12,15-pentaoxo-1,4,7,10,13-pentaazacyclopentadecan-2-yl]acetic acid] showed a pIC50 of 5.08.
To `CC[C@@]1(O)C(=O)OCc2c1cc1n(c2=O)Cc2c-1nc1ccccc1c2/C=N/OCCNC(=O)CCC(=O)NCc1ccc(C[C@@H]2NC(=O)[C@@H](Cc3ccccc3)NC(=O)[C@H](CC(=O)O)NC(=O)CNC(=O)[C@H](CCCN=C(N)N)NC2=O)cc1` [2-[(2S,5R,8S,11S)-5-benzyl-11-(3-carbamimidamidopropyl)-8-{[4-({3-[(2-{[(E)-{[(19S)-19-ethyl-19-hydroxy-14,18-dioxo-17-oxa-3,13-diazapentacyclo[11.8.0.0^{2,11}.0^{4,9}.0^{15,20}]henicosa-1(21),2,4,6,8,10,15(20)-heptaen-10-yl]methylidene}amino]oxy}ethyl)carbamoyl]propanamido}methyl)phenyl]methyl}-3,6,9,12,15-pentaoxo-1,4,7,10,13-pentaazacyclopentadecan-2-yl]acetic acid] belongs < 4.00.
